Measurements: patent US11198695B2, “Fused ring derivative having MGAT-2 inhibitory activity” (Shionogi & Co., Ltd., priority 2017, dated 2021)

Molecular target: recombinant human MGAT2 (Homo sapiens (Human), UniProt Q3SYC2)
Assay: Measurement of human MGAT2 inhibitory activity
Format: biochemical
Settings: read-out: IC50 (concentration exhibiting 50% enzyme inhibition), Table 52
Method: A full-length human MGAT2 gene to which a Flag-tag had been added at the N-terminal was inserted into pFastBac (from Invitrogen). A recombinant baculovirus was produced in accordance with the protocol for a Bac-to-Bac baculovirus expression system (produced by Invitrogen), and Sf-9 cells were infected therewith. The cells were collected and sonicated, and then the membrane fraction was collected through centrifugation. Western blotting analysis with an anti-Flag antibody was performed for the membrane fraction to confirm expression, and the membrane fraction was used as a recombinant human MGAT2 enzyme solution.
Solutions of the compounds of the present invention in DMSO were each aliquoted into 0.2-μL portions in a 384-well polystyrene microplate produced by Corning Incorporated, and 5 μL of an enzyme solution prepared with an assay buffer (100 mmol/L phosphate buffer (pH 7.4) containing 2 mmol/L DTT) and 5 μL of a substrate solution (100 mmol/L phosphate buffer (pH 7.4), 30 μmol/L 2-Oleoylglycerol, 10 μmol/L Oleoyl-CoA) were added thereto, and the resultant was stirred and centrifuged, and incubated in a moist chamber at room temperature for 1 hour. After enzymatic reaction, 50 μL of a quenching solution (containing 0.2 μmol/L Diolein-d5, 0.4% formic acid, and 50% isopropanol) containing Internal Standard (IS) was added to terminate the reaction, and the resultant was sealed in a plate produced by Shimadzu GLC Ltd., and then stirred and centrifuged, and measurement was performed by using an electrospray ionization method with a RapidFire360 and Agilent 6550 Q-TOF mass spectrometer. Diolein as a reaction product (P) of 2-Oleoylglycerol as the substrate and an ammonium adduct ion of the IS were detected, and the peak intensity ratio, P/IS, was calculated from the peak heights to evaluate the inhibitory activity. Inhibitory activities with/without addition of enzyme were defined as Control (+)/Control (−), respectively, and the respective % inhibitions were defined as 0% inhibition and 100% inhibition. The inhibitory activity was calculated from formula below with TIBCO Spotfire (produced by TIBCO Software Inc.): Inhibitory activity (%)=[1−{Sample−Control(−)}/{Control(+)−Control(−)}]*100 where Sample indicates a peak intensity ratio: P/IS, when the compound of the present invention was added.

Sequence of recombinant human MGAT2 (Q3SYC2 whole entry): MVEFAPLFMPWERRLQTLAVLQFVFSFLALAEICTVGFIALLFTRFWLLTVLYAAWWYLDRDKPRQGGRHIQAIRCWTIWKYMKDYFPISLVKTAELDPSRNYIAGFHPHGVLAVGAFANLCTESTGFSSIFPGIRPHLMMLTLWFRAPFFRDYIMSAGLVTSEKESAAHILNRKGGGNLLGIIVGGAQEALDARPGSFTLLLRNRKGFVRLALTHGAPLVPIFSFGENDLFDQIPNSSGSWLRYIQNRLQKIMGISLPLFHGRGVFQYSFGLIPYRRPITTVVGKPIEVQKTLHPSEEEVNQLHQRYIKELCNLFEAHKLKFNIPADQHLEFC

SMILES	IC50 [nM]
O=C1N[C@@]2(CCc3cc(OCC(F)(F)F)ccc32)Cc2nn(CCC3CC3)c(C(=O)NS(=O)(=O)Cc3ccccc3)c21 [Compound I-119]	150
CS(=O)(=O)CC(=O)Nc1c2c(nn1-c1cccc(C(F)(F)F)c1)C[C@]1(CCc3cc(OCC(F)(F)F)ccc31)NC2=O [Compound I-125]	525
CS(=O)(=O)CC(=O)Nc1c2c(nn1-c1cccc(OC(F)(F)F)c1)C[C@]1(CCc3cc(OCC(F)(F)F)ccc31)NC2=O [Compound I-126]	710
CS(=O)(=O)CC(=O)Nc1c2c(nn1-c1cc(F)cc(F)c1)C[C@]1(CCc3cc(OCC(F)(F)F)ccc31)NC2=O [Compound I-127]	105
CS(=O)(=O)CC(=O)Nc1c2c(nn1-c1cc(C(F)(F)F)cc(C(F)(F)F)c1)C[C@]1(CCc3cc(OCC(F)(F)F)ccc31)NC2=O [Compound I-130]	505
Cc1cccc(-n2nc3c(c2NC(=O)CS(C)(=O)=O)C(=O)N[C@@]2(CCc4cc(OCC(F)(F)F)ccc42)C3)n1 [Compound I-134]	340
CS(=O)(=O)NCc1c2c(nn1CCC1CC1)C[C@]1(CCc3cc(OCC(F)(F)F)ccc31)NC2=O [Compound I-138]	550
O=C1N[C@@]2(CCc3cc(OCC(F)(F)F)ccc32)Cc2nn(CCC3CC3)c(CNS(=O)(=O)C3CCCC3)c21 [Compound I-140]	730
CC(C)S(=O)(=O)NCc1c2c(nn1CCC1CC1)C[C@]1(CCc3cc(OCC(F)(F)F)ccc31)NC2=O [Compound I-141]	430
O=C1N[C@@]2(CCc3cc(OCC(F)(F)F)ccc32)Cc2nn(CCC3CC3)c(CNS(=O)(=O)C3CCOCC3)c21 [Compound I-142]	270
O=C1N[C@@]2(CCc3cc(OCC(F)(F)F)ccc32)Cc2nn(CCC3CC3)c(CNS(=O)(=O)C3CCC3)c21 [Compound I-143]	510
O=C1N[C@@]2(CCc3cc(OCC(F)(F)F)ccc32)Cc2nn(CCC3CC3)c(CNS(=O)(=O)CCO)c21 [Compound I-144]	400
O=C1N[C@@]2(CCc3cc(OCC(F)(F)F)ccc32)Cc2nn(CCC3CC3)c(CNC(=O)C3CC3)c21 [Compound I-145]	83
Cc1ccccc1C(=O)NCc1c2c(nn1CCC1CC1)C[C@]1(CCc3cc(OCC(F)(F)F)ccc31)NC2=O [Compound I-146]	420
O=C(NCc1c2c(nn1CCC1CC1)C[C@]1(CCc3cc(OCC(F)(F)F)ccc31)NC2=O)c1cccc(O)c1 [Compound I-149]	690
O=C(NCc1c2c(nn1CCC1CC1)C[C@]1(CCc3cc(OCC(F)(F)F)ccc31)NC2=O)c1ncco1 [Compound I-150]	100
O=C(NCc1c2c(nn1CCC1CC1)C[C@]1(CCc3cc(OCC(F)(F)F)ccc31)NC2=O)c1ccon1 [Compound I-151]	180
O=C(NCc1c2c(nn1CCC1CC1)C[C@]1(CCc3cc(OCC(F)(F)F)ccc31)NC2=O)c1ccno1 [Compound I-152]	300
N#CC1(C(=O)NCc2c3c(nn2CCC2CC2)C[C@]2(CCc4cc(OCC(F)(F)F)ccc42)NC3=O)CC1 [Compound I-153]	240
O=C(NCc1c2c(nn1CCC1CC1)C[C@]1(CCc3cc(OCC(F)(F)F)ccc31)NC2=O)c1cocn1 [Compound I-154]	530
CC(C)(O)C(=O)NCc1c2c(nn1CCC1CC1)C[C@]1(CCc3cc(OCC(F)(F)F)ccc31)NC2=O [Compound I-155]	180
O=C1N[C@@]2(CCc3cc(OCC(F)(F)F)ccc32)Cc2nn(CCC3CC3)c(CNC(=O)C3(O)CC3)c21 [Compound I-156]	920
O=C1N[C@@]2(CCc3cc(OCC(F)(F)F)ccc32)Cc2nn(CCC3CC3)c(CNC(=O)C3(C(F)(F)F)CCC3)c21 [Compound I-158]	130
O=C(NCc1c2c(nn1CCC1CC1)C[C@]1(CCc3cc(OCC(F)(F)F)ccc31)NC2=O)c1cnco1 [Compound I-159]	600
O=C1N[C@@]2(CCc3cc(OCC(F)(F)F)ccc32)Cc2nn(CCC3CC3)c(CNC(=O)C3CS(=O)(=O)C3)c21 [Compound I-161]	430

The next molecules have a lower IC50 than those just listed; values first:

IC50 [nM]	SMILES
78	CC(C)(C#N)C(=O)NCc1c2c(nn1CCC1CC1)C[C@]1(CCc3cc(OCC(F)(F)F)ccc31)NC2=O [Compound I-160]
55.5	CS(=O)(=O)CC(=O)Nc1c2c(nn1-c1cccc(F)c1)C[C@]1(CCc3cc(OCC(F)(F)F)ccc31)NC2=O [Compound I-123]
47	O=C1N[C@@]2(CCc3cc(OCC(F)(F)F)ccc32)Cc2nn(CCC3CC3)c(C(=O)NS(=O)(=O)C3CCC3)c21 [Compound I-121]
46	CCS(=O)(=O)NC(=O)c1c2c(nn1CCC1CC1)C[C@]1(CCc3cc(OCC(F)(F)F)ccc31)NC2=O [Compound I-120]
40.5	CS(=O)(=O)CC(=O)Nc1c2c(nn1-c1cc(Cl)cc(Cl)c1)C[C@]1(CCc3cc(OCC(F)(F)F)ccc31)NC2=O [Compound I-128]
39	O=C1N[C@@]2(CCc3cc(OCC(F)(F)F)ccc32)Cc2nn(CCC3CC3)c(CNC(=O)C3CCC3)c21 [Compound I-147]
38	O=C1N[C@@]2(CCc3cc(OCC(F)(F)F)ccc32)Cc2nn(CCC3CC3)c(CNC(=O)C3(C(F)(F)F)CC3)c21 [Compound I-157]
26.5	Cc1cc(C)cc(-n2nc3c(c2NC(=O)CS(C)(=O)=O)C(=O)N[C@@]2(CCc4cc(OCC(F)(F)F)ccc42)C3)c1 [Compound I-129]
22	CS(=O)(=O)CC(=O)Nc1c2c(nn1-c1cccc(Cl)c1)C[C@]1(CCc3cc(OCC(F)(F)F)ccc31)NC2=O [Compound I-124]
14	CS(=O)(=O)CC(=O)Nc1c2c(nn1-c1ccc(C#N)cc1)C[C@]1(CCc3cc(OCC(F)(F)F)ccc31)NC2=O [Compound I-133]
9.65	Cc1ccc(-n2nc3c(c2NC(=O)CS(C)(=O)=O)C(=O)N[C@@]2(CCc4cc(OCC(F)(F)F)ccc42)C3)cc1C [Compound I-132]
5.6	O=C(CC(F)(F)F)NCc1c2c(nn1CCC1CC1)C[C@]1(CCc3cc(OCC(F)(F)F)ccc31)NC2=O [Compound I-148]
5.2	CS(=O)(=O)CC(=O)Nc1c2c(nn1-c1ccc(F)c(F)c1)C[C@]1(CCc3cc(OCC(F)(F)F)ccc31)NC2=O [Compound I-131]
4.1	CS(=O)(=O)CC(=O)Nc1c2c(nn1CCCC(F)(F)F)C[C@@]1(CCc3cc(OCC(F)(F)F)cc(F)c31)NC2=O [Compound I-136]
4.1	CCc1ccc(-n2nc3c(c2NC(=O)CS(C)(=O)=O)C(=O)N[C@@]2(CCc4cc(OCCCC(F)(F)F)ccc42)C3)cc1 [Compound I-139]
3.6	CS(=O)(=O)CC(=O)Nc1c2c(nn1-c1ccc(C#N)cn1)C[C@]1(CCc3cc(N4CC(F)(F)C4)ccc31)NC2=O [Compound I-163]
3.1	Cc1ccnc(-n2nc3c(c2NC(=O)CS(C)(=O)=O)C(=O)N[C@@]2(CCc4cc(OCC(F)(F)F)ccc42)C3)c1 [Compound I-135]
1.9	CS(=O)(=O)CC(=O)Nc1c2c(nn1-c1ccc(C#N)cn1)C[C@]1(CCc3cc(OCC(F)(F)F)cc(F)c31)NC2=O [Compound I-162]
1.8	CS(=O)(=O)CC(=O)Nc1c2c(nn1-c1ccc(C#N)cn1)C[C@@]1(CCc3cc(N4CC(C(F)(F)F)C4)ccc31)NC2=O [Compound I-122]
1.7	CS(=O)(=O)CC(=O)Nc1c2c(nn1-c1ccc(C#N)cn1)C[C@@]1(CCc3cc(OCC(F)(F)F)cc(F)c31)NC2=O [Compound I-137]
